Reference: patent US20130029962A1, “Substituted Heteroaromatic Pyrazole-Containing Carboxamide and Urea Compounds as Vanilloid Receptor Ligands” (Gruenenthal GmbH, priority 2011, published 2013)

Biological target: T1, vanilloid receptor 1 (VR1/TRPV1 receptor) (Homo sapiens, UniProt Q8NER1)
T1 construct: expressed in transfected cells; host or cells: CHO K1
Assay: Functional testing on the vanilloid receptor 1 (VR1/TRPV1): FLIPR Ca2+ influx assay, displacement of capsaicin
Format: cell-based, human being
Set-up: key to mode of action at VR1/TRPV1 (AG, pAG, NE), Cap: AG=agonist; NE=no effect; pAG=partial agonist
Details: 5 μM compound; capsaicin (Cap); human being; read-out: inhibition (as a percentage) at the concentration after @, Cap
Protocol: Furthermore, preference may be given to compounds according to the invention that cause a 50 percent displacement of capsaicin, which is present at a concentration of 100 nM, in a FLIPR assay with CHO K1 cells which were transfected with the human VR1 gene at a concentration of less than 2,000 nM, preferably less than 1,000 nM, particularly preferably less than 300 nM, most particularly preferably less than 100 nM, even more preferably less than 75 nM, additionally preferably less than 50 nM, most preferably less than 10 nM.
In the process, the Ca^2+ influx is quantified in the FLIPR assay with the aid of a Ca^2+-sensitive dye (type Fluo-4, Molecular Probes Europe BV, Leiden, the Netherlands) in a fluorescent imaging plate reader (FLIPR, Molecular Devices, Sunnyvale, USA), as described hereinafter. […]
The number of cells in the suspension is set to 3×10^5 per mL and 150 μL of this suspension are in each case introduced into a recess in the cell culture plates coated as described hereinbefore. In the incubator the plates are left for two to three days at 37° C., 5% by volume of CO2 and 95% relative humidity. Subsequently, the cells are loaded with 2 μM of Fluo-4 and 0.01% by volume of Pluronic F127 (Molecular Probes Europe BV, Leiden, the Netherlands) in HBSS buffer (Hank's buffered saline solution, Gibco Invitrogen GmbH, Karlsruhe, Germany) for 30 min at 37° C., washed 3 times with HBSS buffer and after further incubation for 15 minutes at room temperature used for Ca^2+ measurement in a FLIPR assay. The Ca^2+-dependent fluorescence is in this case measured before and after the addition of substances (λex=488 nm, λem=540 nm). Quantification is carried out by measuring the highest fluorescence intensity (FC, fluorescence counts) over time.
The FLIPR protocol consists of 2 substance additions. First the compounds to be tested (10 μM) are pipetted onto the cells and the Ca^2+ influx is compared with the control (capsaicin 10 μM). This provides the result in % activation based on the Ca^2+ signal after the addition of 10 μM of capsaicin (CP). After 5 minutes' incubation, 100 nM of capsaicin are applied and the Ca^2+ influx is also determined. Desensitising agonists and antagonists lead to suppression of the Ca^2+ influx. The % inhibition is calculated compared to the maximum achievable inhibition with 10 μM of capsazepine. Triple analyses (n=3) are carried out and repeated in at least 3 independent experiments (N=4).
Starting from the percentage displacement caused by different concentrations of the compounds to be tested of general formula I, IC50 inhibitory concentrations which cause a 50-percent displacement of capsaicin were calculated. Ki values for the test substances were obtained by conversion by means of the Cheng-Prusoff equation (Cheng, Prusoff; Biochem. Pharmacol. 22, 3099-3108, 1973).
The affinity of the compounds according to the invention for the vanilloid receptor 1 (VR1/TRPV1 receptor) was determined as described above (pharmacological method I).

T1 sequence (Q8NER1 whole entry): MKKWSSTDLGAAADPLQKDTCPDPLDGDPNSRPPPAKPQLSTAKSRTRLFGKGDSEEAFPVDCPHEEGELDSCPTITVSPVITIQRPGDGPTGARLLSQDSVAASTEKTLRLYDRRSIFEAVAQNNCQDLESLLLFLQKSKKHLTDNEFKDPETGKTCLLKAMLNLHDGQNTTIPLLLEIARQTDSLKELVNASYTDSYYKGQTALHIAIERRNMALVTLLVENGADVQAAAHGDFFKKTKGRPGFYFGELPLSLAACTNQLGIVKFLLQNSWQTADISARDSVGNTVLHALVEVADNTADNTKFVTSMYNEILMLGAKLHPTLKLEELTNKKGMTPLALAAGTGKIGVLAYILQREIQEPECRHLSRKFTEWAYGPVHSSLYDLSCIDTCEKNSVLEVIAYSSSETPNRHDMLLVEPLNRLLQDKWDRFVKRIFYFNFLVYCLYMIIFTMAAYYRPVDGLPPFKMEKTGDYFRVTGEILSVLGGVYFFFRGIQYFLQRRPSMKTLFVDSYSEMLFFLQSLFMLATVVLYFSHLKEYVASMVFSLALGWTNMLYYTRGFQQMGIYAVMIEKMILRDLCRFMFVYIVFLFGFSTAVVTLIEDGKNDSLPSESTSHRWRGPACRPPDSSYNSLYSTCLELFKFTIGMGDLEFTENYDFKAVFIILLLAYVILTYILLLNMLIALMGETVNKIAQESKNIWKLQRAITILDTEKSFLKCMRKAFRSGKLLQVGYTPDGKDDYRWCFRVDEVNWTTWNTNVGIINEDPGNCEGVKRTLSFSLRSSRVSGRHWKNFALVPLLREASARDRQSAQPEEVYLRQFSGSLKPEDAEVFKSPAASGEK

| inhibition at 5 µM | Structure (SMILES) |
| --- | --- |
| 72% | O=C(NCc1cc(C(F)(F)F)nn1-c1cccc(Cl)c1)Nc1cccnc1 [Example 9, 1-((1-(3-chlorophenyl)-3-(trifluoromethyl)-1H-pyrazol-5-yl)methyl)-3-(pyridin-3-yl)urea] |
| 41% | COc1ccc(-n2nc(C(F)(F)F)cc2CNC(=O)Nc2ccc(CO)nc2)cc1C [Example 37, 1-(6-(hydroxymethyl)pyridin-3-yl)-3-((1-(4-methoxy-3-methylphenyl)-3-(trifluoromethyl)-1H-pyrazol-5-yl)methyl)urea] |

Same assay, conditions: capsaicin (Cap) as stimulus; Ki from IC50 by Cheng-Prusoff; read-out: (f) Ki (human being) [nM] Cap

| Structure (SMILES) | Ki |
| --- | --- |
| CN(CCO)c1ccc(NC(=O)NCc2cc(C(F)(F)F)nn2-c2cccc(Cl)c2)cn1 [Example 90, 1-((1-(3-chlorophenyl)-3-(trifluoromethyl)-1H-pyrazol-5-yl)methyl)-3-(6-((2-hydroxyethyl)(methyl)amino)pyridin-3-yl)urea] | 44 nM |
| CC(C(=O)NCc1cc(C(F)(F)F)nn1-c1cccc(Cl)c1)c1ccc(CNS(C)(=O)=O)nc1 (stereo not shown) [Example 27, N-((1-(3-chlorophenyl)-3-(trifluoromethyl)-1H-pyrazol-5-yl)methyl)-2-(6-(methylsulfonamidomethyl)pyridin-3-yl)propanamide] | 61 nM |
| O=C(NCc1cc(C(F)(F)F)nn1-c1cccc(Cl)c1)Nc1ccc(CO)nc1 [Example 32, 1-((1-(3-chlorophenyl)-3-(trifluoromethyl)-1H-pyrazol-5-yl)methyl)-3-(6-(hydroxymethyl)pyridin-3-yl)urea] | 32 nM |
| Cc1cccc(-n2nc(C(F)(F)F)cc2CNC(=O)Nc2ccc(NCCO)nc2)c1 [Example 81, 1-(6-(2-hydroxyethylamino)pyridin-3-yl)-3-((1-m-tolyl-3-(trifluoromethyl)-1H-pyrazol-5-yl)methyl)urea] | 12 nM |
| CC(C(=O)NCc1cc(C(F)(F)F)nn1-c1cccc(Cl)c1)c1ccc(COCCO)nc1 (stereo not shown) [Example 53, N-((1-(3-chlorophenyl)-3-(trifluoromethyl)-1H-pyrazol-5-yl)methyl)-2-(6-((2-hydroxyethoxy)methyl)pyridin-3-yl)propanamide] | 44 nM |
| CS(=O)(=O)CCc1ncc(NC(=O)NCc2cc(C3CC3)nn2-c2cccc(Cl)c2)cc1F [Example 24, 1-((1-(3-chlorophenyl)-3-cyclopropyl-1H-pyrazol-5-yl)methyl)-3-(5-fluoro-6-(2-(methylsulfonyl)ethyl)pyridin-3-yl)urea] | 46 nM |

Continued, values first:

| Ki | Structure (SMILES) |
| --- | --- |
| 2 nM | COc1cc(C(C)C(=O)NCc2cc(C(C)(C)C)nn2-c2cccc(Cl)c2)cnc1NS(C)(=O)=O (stereo not shown) [Example 105, N-((3-tert-butyl-1-(3-chlorophenyl)-1H-pyrazol-5-yl)methyl)-2-(5-methoxy-6-(methylsulfonamido)pyridin-3-yl)propanamide] |
| 38 nM | CC(C)(C)c1cc(CNC(=O)Nc2ccc(NCCO)nc2)n(-c2cccc(F)c2)n1 [Example 154, 1-((3-tert-butyl-1-(3-fluorophenyl)-1H-pyrazol-5-yl)methyl)-3-(6-(2-hydroxyethylamino)pyridin-3-yl)urea] |
| 8 nM | CC(C(=O)NCc1cc(C(C)(C)C)nn1-c1cccc(Cl)c1)c1cnc(NS(C)(=O)=O)c(F)c1 (stereo not shown) [Example 102, N-((3-tert-butyl-1-(3-chlorophenyl)-1H-pyrazol-5-yl)methyl)-2-(5-fluoro-6-(methylsulfonamido)pyridin-3-yl)propanamide] |
| 3 nM | CC(C(=O)NCc1cc(C(F)(F)F)nn1-c1cccc(Cl)c1)c1ccc(NC(=O)c2ccc(Cl)cc2)nc1 (stereo not shown) [Example 96, 4-chloro-N-(5-(1-((1-(3-chlorophenyl)-3-(trifluoromethyl)-1H-pyrazol-5-yl)methylamino)-1-oxopropan-2-yl)pyridin-2-yl)benzamide] |
| 84 nM | Cc1nc(CCO)ccc1NC(=O)NCc1cc(C(F)(F)F)nn1-c1cccc(Cl)c1 [Example 143, 1-((1-(3-chlorophenyl)-3-(trifluoromethyl)-1H-pyrazol-5-yl)methyl)-3-(6-(2-hydroxyethyl)-2-methylpyridin-3-yl)urea] |
| 121 nM | O=C(NCc1cc(C(F)(F)F)nn1-c1cccc(Cl)c1)Nc1ccc(C(O)CO)nc1 (stereo not shown) [Example 145, 1-((1-(3-chlorophenyl)-3-(trifluoromethyl)-1H-pyrazol-5-yl)methyl)-3-(6-(1,2-dihydroxyethyl)pyridin-3-yl)urea] |
| 0.6 nM | CC(C(=O)NCc1cc(C(F)(F)F)nn1-c1cccc(Cl)c1)c1ccc(NCCO)nc1 (stereo not shown) [Example 146, N-((1-(3-chlorophenyl)-3-(trifluoromethyl)-1H-pyrazol-5-yl)methyl)-2-(6-(2-hydroxyethylamino)pyridin-3-yl)propanamide] |
| 90 nM | Cc1cc(C)c(NC(=O)NCc2cc(C(F)(F)F)nn2-c2cccc(Cl)c2)cn1 [Example 138, 1-((1-(3-chlorophenyl)-3-(trifluoromethyl)-1H-pyrazol-5-yl)methyl)-3-(4,6-dimethylpyridin-3-yl)urea] |
| 55 nM | Cc1cncc(NC(=O)NCc2cc(C(F)(F)F)nn2-c2cccc(Cl)c2)c1 [Example 137, 1-((1-(3-chlorophenyl)-3-(trifluoromethyl)-1H-pyrazol-5-yl)methyl)-3-(5-methylpyridin-3-yl)urea] |
| 83 nM | COc1cc(NC(=O)NCc2cc(C(F)(F)F)nn2-c2cccc(Cl)c2)cnc1N1CCCC1 [Example 123, 1-((1-(3-chlorophenyl)-3-(trifluoromethyl)-1H-pyrazol-5-yl)methyl)-3-(5-methoxy-6-(pyrrolidin-1-yl)pyridin-3-yl)urea] |
| 46 nM | O=C(NCc1cc(C(F)(F)F)nn1-c1cccc(Cl)c1)Nc1ccc(N2CCC2)nc1 [Example 109, 1-(6-(azetidin-1-yl)pyridin-3-yl)-3-((1-(3-chlorophenyl)-3-(trifluoromethyl)-1H-pyrazol-5-yl)methyl)urea] |
| 59 nM | CC(C(=O)NCc1cc(C2CC2)nn1-c1cccc(Cl)c1)c1ccc(CCO)nc1 (stereo not shown) [Example 150, N-((1-(3-chlorophenyl)-3-cyclopropyl-1H-pyrazol-5-yl)methyl)-2-(6-(2-hydroxyethyl)pyridin-3-yl)propanamide] |
| 1.5 nM | CC(C(=O)NCc1cc(C(F)(F)F)nn1-c1cccc(Cl)c1)c1cnc(CO)c(F)c1 (stereo not shown) [Example 142, N-((1-(3-chlorophenyl)-3-(trifluoromethyl)-1H-pyrazol-5-yl)methyl)-2-(5-fluoro-6-(hydroxymethyl)pyridin-3-yl)propanamide] |
| 2 nM | CC(C)c1cccc(-n2nc(C(F)(F)F)cc2CNC(=O)Nc2ccc(N3CC(O)C3)nc2)c1 [Example 115, 1-(6-(3-hydroxyazetidin-1-yl)pyridin-3-yl)-3-((1-(3-isopropylphenyl)-3-(trifluoromethyl)-1H-pyrazol-5-yl)methyl)urea] |

Same assay, conditions: capsaicin (Cap); human being

| mode of action at VR1/TRPV1 (AG, pAG, NE), Cap | Structure (SMILES) |
| --- | --- |
| NE | O=C(NCc1cc(C(F)(F)F)nn1-c1cccc(F)c1)Nc1ccc(C2CCOCC2)nc1 [Example 54, 1-((1-(3-fluorophenyl)-3-(trifluoromethyl)-1H-pyrazol-5-yl)methyl)-3-(6-(tetrahydro-2H-pyran-4-yl)pyridin-3-yl)urea] |
| AG | O=C(NCc1cc(C(F)(F)F)nn1-c1cccc(Cl)c1)Nc1cccnc1 [Example 9, 1-((1-(3-chlorophenyl)-3-(trifluoromethyl)-1H-pyrazol-5-yl)methyl)-3-(pyridin-3-yl)urea] |
| pAG | CC(C)(C)c1cc(CNC(=O)Cc2cnccn2)n(-c2cccc(Cl)c2)n1 [Example 14, 1N-((3-tert-butyl-1-(3-chlorophenyl)-1H-pyrazol-5-yl)methyl)-2-(pyrazin-2-yl)acetamide] |
